For orientation: IC50 means the concentration at which inhibition is half-maximal. Broadly, the Cmax is the highest concentration seen after dosing. Usually bioavailability stands for the share of a dose that reaches the circulation, judged against a reference dose that is usually intravenous. A word on the AUC(0-t): it is the area under the concentration-time curve up to a stated or last time point. The term clearance denotes the volume of plasma or blood freed of the substance per unit of time. High values mean efficient removal, low ones inefficient removal. Usually AUC stands for concentration integrated over time.

For data set [1], the system named is Mus musculus. Kind of data set: Suppression of malonyl-CoA levels in C57BL/6 mouse skeletal muscle at 2.5 mg/kg, po measured at 6 hrs post dose by LC-MS analysis relative to control. Type of data set: functional.
Another data set deals with Acetyl-CoA carboxylase 1 (Homo sapiens, UniProt Q13085). Kind of data set: Inhibition of recombinant human ACC1 assessed as reduction in conversion of acetyl-CoA to malonyl-CoA incubated for 1 to 3 hrs with substrate by MALDI-TOF-MS analysis.
Data set [2] is described as follows: Metabolic stability in rat liver microsomes assessed as parent compound remaining after 30 mins. In kind it is ADME, microsome. The settings on record: read-out: Stability.
Data set [3] has as its system Rattus norvegicus. Kind of data set: Toxicity in rat assessed as abnormal clinical signs at 50 mg/kg/day, po administered for 4 consecutive days. Type of data set: organism-based. Conditions: in vivo.
A further data set deals with Cytochrome P450 2C19 (Homo sapiens, UniProt P33261). Kind of data set: Inhibition of CYP2C19 (unknown origin). In kind it is ADME.
Sequence of Cytochrome P450 2C19 (P33261 whole entry): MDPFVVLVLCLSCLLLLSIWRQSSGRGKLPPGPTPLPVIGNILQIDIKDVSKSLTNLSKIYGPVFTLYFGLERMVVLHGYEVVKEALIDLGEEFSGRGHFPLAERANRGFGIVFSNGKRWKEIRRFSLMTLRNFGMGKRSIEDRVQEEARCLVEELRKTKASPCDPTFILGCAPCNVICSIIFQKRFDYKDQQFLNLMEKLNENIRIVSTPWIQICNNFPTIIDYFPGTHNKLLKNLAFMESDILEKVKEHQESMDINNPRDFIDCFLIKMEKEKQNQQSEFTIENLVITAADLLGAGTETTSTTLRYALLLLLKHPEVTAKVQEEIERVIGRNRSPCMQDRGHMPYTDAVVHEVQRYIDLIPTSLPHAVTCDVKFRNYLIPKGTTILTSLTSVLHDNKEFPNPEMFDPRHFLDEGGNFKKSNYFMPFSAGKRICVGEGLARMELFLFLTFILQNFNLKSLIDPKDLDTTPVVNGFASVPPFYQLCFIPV
The nature of data set [4]: Cmax in rat at 50 mg/kg/day, po administered for 4 consecutive days measured on day 1. Type of data set: ADME, organism-based. On the set-up: dose 50 mg/kg/day, route oral. Conditions: in vivo.
A short description of data set [5]: Plasma concentration in C57BL/6 mouse at 2.5 mg/kg, po measured at 6 hrs post dose by LC-MS analysis. In kind it is ADME, organism-based.
A further data set deals with Cytochrome P450 2D6 (Homo sapiens, UniProt P10635). Description: Inhibition of CYP2D6 (unknown origin). In kind it is ADME.
Sequence of Cytochrome P450 2D6 (P10635 whole entry): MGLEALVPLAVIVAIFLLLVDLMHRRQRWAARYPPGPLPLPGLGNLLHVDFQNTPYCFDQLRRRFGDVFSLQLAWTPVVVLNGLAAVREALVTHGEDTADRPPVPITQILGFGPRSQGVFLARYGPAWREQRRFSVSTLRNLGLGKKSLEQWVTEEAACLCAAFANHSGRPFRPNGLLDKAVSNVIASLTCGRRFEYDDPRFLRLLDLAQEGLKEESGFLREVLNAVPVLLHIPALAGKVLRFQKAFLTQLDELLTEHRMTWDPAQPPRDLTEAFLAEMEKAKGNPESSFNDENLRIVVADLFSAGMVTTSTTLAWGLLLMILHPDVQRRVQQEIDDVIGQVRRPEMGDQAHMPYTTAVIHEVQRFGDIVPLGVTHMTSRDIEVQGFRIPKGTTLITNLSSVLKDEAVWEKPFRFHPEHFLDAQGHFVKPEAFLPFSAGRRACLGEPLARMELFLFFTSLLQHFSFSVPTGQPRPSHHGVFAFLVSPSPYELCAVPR
Another data set concerns the target Cytochrome P450 2C9 (Homo sapiens, UniProt P11712). Description: Inhibition of CYP2C9 (unknown origin). Type of data set: ADME.
In a further data set the target is Cytochrome P450 3A4 (Homo sapiens, UniProt P08684). Kind of data set: Inhibition of CYP3A4 (unknown origin). Type of data set: ADME.
Sequence of Cytochrome P450 3A4 (P08684 whole entry): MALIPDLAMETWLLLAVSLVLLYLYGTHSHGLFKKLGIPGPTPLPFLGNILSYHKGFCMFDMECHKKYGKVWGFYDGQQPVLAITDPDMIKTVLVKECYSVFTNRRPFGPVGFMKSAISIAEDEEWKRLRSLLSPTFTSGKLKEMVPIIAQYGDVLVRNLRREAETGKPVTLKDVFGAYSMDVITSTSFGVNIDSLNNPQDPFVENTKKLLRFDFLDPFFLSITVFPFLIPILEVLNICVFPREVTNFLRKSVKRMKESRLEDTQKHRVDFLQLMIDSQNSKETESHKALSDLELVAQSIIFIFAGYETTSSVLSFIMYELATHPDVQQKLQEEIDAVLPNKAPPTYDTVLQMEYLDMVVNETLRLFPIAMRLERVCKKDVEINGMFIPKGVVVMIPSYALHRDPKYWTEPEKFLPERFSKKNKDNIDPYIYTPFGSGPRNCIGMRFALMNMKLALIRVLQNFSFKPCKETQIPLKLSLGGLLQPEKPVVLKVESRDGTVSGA
Data set [6] in a line: Cmax in C57BL/6 mouse at 2.5 mg/kg, po. Type of data set: ADME, organism-based. Further details: dose 2.5 mg/kg, route oral. The settings on record: in vivo.
Data set [7] can be described thus: Oral bioavailability in C57BL/6 mouse at 2.5 mg/kg. In kind it is ADME, organism-based. Conditions: in vivo.
Data set [8] is described as follows: AUC (0 to 24 hrs) in rat at 50 mg/kg/day, po administered for 4 consecutive days measured on day 1. Type of data set: ADME, organism-based. On the set-up: dose 50 mg/kg/day, time < 24 hr, route oral. The settings on record: in vivo.
Data set [9] in a line: Total clearance in C57BL/6 mouse at 0.2 mg/kg, iv. In kind it is ADME, organism-based. The settings on record: in vivo.
Data set [10] in a line: AUC in C57BL/6 mouse at 2.5 mg/kg, po. The settings on record: in vivo. Type of data set: ADME, organism-based.
The nature of data set [11]: Plasma concentration in C57BL/6 mouse at 1 mg/kg, po measured at 6 hrs post dose by LC-MS analysis. Type of data set: ADME, organism-based.
The target in another data set is T1, Cytochrome P450 1A2 (Homo sapiens, UniProt P05177).
T1 sequence (P05177 whole entry): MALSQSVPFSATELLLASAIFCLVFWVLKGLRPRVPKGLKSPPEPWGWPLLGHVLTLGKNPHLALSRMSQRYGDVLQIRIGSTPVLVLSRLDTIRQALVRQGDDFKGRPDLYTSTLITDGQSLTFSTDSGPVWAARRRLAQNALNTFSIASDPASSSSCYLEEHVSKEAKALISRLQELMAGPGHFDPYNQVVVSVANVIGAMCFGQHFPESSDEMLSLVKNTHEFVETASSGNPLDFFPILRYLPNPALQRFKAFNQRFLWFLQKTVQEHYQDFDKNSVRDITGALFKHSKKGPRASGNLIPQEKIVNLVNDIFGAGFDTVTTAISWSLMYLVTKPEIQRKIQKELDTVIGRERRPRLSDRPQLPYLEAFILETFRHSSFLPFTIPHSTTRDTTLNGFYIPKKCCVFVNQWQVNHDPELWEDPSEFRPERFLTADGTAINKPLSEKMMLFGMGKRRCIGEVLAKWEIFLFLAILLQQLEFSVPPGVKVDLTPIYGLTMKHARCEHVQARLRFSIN
Kind of data set: Inhibition of CYP1A2 (unknown origin). In kind it is ADME.

A short description of data set [12]: Metabolic stability in human liver microsomes assessed as parent compound remaining after 30 mins. The settings on record: read-out: Stability. Type of data set: ADME, microsome. For orientation: Microsomes from liver hold many membrane-bound enzymes, among them those of drug oxidation.
The subject of data set [13] is Rattus norvegicus. Description: Toxicity in rat assessed as histopathological lesions in heart at 50 mg/kg/day, po administered for 4 consecutive days. Conditions: in vivo. Type of data set: organism-based.
For another data set, the species on record is Homo sapiens. Kind of data set: Selectivity ratio of IC50 for recombinant human ACC1 to IC50 for recombinant human ACC2.
Another data set addresses Acetyl-CoA carboxylase 2 (Homo sapiens, UniProt O00763). Description: Inhibition of recombinant human ACC2 assessed as reduction in conversion of acetyl-CoA to malonyl-CoA incubated for 1 to 3 hrs with substrate by MALDI-TOF-MS analysis.
The test system of data set [14] is Mus musculus. Kind of data set: Suppression of malonyl-CoA levels in C57BL/6 mouse skeletal muscle at 1 mg/kg, po measured at 6 hrs post dose by LC-MS analysis relative to control. Type of data set: functional.

Sequence of Cytochrome P450 2C9 (P11712 whole entry): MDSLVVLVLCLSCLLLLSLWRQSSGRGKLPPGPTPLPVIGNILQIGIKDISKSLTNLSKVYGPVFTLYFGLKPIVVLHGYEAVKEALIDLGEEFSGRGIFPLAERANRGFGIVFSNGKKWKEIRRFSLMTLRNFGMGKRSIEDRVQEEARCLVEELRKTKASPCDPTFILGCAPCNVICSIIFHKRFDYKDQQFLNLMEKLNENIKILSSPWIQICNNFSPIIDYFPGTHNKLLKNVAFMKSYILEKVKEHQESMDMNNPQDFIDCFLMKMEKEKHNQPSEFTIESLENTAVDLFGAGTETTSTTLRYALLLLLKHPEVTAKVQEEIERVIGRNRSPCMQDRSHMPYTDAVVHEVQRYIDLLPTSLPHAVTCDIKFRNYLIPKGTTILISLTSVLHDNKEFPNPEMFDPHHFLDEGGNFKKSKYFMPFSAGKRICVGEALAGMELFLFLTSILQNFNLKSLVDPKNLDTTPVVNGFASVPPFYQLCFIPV
Sequence of Acetyl-CoA carboxylase 2 (O00763 whole entry): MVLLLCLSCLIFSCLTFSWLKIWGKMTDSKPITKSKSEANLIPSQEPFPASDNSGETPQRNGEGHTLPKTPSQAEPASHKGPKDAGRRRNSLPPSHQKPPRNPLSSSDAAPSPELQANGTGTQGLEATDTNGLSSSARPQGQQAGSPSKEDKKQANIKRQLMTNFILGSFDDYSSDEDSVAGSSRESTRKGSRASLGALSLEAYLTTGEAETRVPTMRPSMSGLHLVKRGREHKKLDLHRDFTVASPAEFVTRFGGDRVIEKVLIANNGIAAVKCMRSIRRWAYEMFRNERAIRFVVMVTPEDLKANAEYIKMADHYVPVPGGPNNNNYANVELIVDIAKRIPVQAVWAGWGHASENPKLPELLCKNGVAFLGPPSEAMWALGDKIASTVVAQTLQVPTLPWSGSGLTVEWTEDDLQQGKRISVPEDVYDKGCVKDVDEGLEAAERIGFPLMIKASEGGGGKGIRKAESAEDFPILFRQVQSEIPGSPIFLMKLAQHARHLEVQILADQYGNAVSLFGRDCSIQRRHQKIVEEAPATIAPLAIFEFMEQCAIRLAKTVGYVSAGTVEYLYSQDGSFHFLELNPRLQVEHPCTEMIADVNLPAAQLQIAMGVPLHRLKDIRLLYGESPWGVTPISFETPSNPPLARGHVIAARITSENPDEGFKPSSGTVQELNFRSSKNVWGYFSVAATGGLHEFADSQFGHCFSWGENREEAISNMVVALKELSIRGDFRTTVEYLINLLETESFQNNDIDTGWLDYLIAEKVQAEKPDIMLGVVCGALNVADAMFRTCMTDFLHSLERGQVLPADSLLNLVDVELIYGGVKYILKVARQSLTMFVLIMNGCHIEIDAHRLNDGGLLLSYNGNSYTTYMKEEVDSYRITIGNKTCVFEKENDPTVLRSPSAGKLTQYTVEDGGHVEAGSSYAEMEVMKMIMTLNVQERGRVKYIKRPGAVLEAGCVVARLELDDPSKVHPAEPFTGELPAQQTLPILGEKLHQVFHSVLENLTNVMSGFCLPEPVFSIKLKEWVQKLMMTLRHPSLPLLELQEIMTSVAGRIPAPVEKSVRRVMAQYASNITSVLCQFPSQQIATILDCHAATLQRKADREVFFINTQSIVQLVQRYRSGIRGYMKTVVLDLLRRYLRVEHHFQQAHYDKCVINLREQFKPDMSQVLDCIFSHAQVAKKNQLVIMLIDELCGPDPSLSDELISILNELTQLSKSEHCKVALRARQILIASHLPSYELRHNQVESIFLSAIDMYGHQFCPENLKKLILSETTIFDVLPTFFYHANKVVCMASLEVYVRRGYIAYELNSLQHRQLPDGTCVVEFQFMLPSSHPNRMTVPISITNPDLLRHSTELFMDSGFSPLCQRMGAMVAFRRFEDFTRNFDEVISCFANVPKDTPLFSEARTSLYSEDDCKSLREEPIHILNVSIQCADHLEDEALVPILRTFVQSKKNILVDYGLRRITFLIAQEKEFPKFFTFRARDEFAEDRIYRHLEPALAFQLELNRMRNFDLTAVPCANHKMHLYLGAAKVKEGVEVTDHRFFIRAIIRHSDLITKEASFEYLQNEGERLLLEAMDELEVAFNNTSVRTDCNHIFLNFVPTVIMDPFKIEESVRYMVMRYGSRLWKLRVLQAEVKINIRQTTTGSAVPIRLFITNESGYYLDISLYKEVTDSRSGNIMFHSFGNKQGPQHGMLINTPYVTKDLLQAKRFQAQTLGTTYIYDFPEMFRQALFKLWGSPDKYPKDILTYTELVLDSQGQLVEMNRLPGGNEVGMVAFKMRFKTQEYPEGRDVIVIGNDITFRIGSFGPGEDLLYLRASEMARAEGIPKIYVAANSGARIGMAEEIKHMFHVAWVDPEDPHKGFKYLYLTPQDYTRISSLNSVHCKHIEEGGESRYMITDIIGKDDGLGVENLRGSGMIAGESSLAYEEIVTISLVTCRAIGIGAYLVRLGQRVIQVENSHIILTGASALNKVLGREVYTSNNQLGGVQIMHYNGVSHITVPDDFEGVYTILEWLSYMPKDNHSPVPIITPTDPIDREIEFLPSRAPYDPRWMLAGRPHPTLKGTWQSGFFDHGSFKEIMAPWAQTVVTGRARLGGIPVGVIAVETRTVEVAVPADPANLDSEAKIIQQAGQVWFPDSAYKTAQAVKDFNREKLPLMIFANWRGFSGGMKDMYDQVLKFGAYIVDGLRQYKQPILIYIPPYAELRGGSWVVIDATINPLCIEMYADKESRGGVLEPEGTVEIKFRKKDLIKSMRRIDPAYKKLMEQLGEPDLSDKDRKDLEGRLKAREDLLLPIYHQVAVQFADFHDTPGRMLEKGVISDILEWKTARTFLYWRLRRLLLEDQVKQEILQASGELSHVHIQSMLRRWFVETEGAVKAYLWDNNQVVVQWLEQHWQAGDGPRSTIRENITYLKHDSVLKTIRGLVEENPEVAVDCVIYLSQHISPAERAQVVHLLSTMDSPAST

For the compound `CCOc1nc2ccc(Oc3ccc(/C=C/[C@H](C)NC(C)=O)cn3)c(Cl)c2s1`, the Activity in the data set with Mus musculus [1] is given as 41%; in the data set on Rattus norvegicus [3] it was “Non-Toxic”; in the data set on Rattus norvegicus [13], “Non-Toxic”; in the data set with Mus musculus [14], 20%. The IC50 is 1.95 µM on Acetyl-CoA carboxylase 1; 18 µM at Cytochrome P450 2C19; more than 20 µM at Cytochrome P450 2D6; 13 µM at Cytochrome P450 2C9; more than 20 µM on Cytochrome P450 3A4; more than 20 µM against Cytochrome P450 1A2. At Acetyl-CoA carboxylase 2, the IC50 is 0.0019 µM. The remaining at 0.5 h was determined as 100% in data set [2] and 91% in [12]. For the same compound, the Cmax in [4] was 34600 ng/mL; in data set [6], 4230 ng/mL. The concentration at 6 h in [5] came out at 2620 ng/mL; in data set [11], 1130 ng/mL. The bioavailability in data set [7] turned out to be 83.5%. In addition, the exposure AUC(0-t) at 24 h in [8] is 620 µg·h/mL. For the same compound, the clearance in data set [9] is 0.354 mL/min/kg. Also, the AUC in [10] was determined as 99.8 µg·h/mL. In the data set filed under Homo sapiens, the Ratio IC50 stood at 1030.

These data come from ChEMBL document CHEMBL4219273, “Discovery of a novel olefin derivative as a highly potent and selective acetyl-CoA carboxylase 2 inhibitor with in vivo efficacy” (Bioorg Med Chem Lett, 2018).
